Experimental data as given in patent US5409941A, “5-heteroyl indole derivatives” (Pfizer Inc., priority 1993, dated 1995).

molecular target: T1, 5-HT1D (Bos taurus, UniProt F1MGM3); assay: 5-HT1D activity, method of R. E. Heuring and S. J. Peroutka; type: binding; details: not given
T1 construct: from tissue
Experimental: The active compounds of the invention are evaluated as anti-migraine agents by testing the extent to which they mimic sumatriptan in contracting the dog isolated saphenous vein strip (P. P. A. Humphrey et al., Br. J. Pharmacol., 94, 1128 (1988)). This effect can be blocked by methiothepin, a known serotonin antagonist. Sumatriptan is known to be useful in the treatment of migraine and produces a selective increase in carotid vascular resistance in the anaesthetized dog. […] The active compounds are also evaluated using the method of R. E. Heuring and S. J. Peroutka (J. Neuroscience, 7, 894 (1987)).

T1 sequence (F1MGM3 1-403): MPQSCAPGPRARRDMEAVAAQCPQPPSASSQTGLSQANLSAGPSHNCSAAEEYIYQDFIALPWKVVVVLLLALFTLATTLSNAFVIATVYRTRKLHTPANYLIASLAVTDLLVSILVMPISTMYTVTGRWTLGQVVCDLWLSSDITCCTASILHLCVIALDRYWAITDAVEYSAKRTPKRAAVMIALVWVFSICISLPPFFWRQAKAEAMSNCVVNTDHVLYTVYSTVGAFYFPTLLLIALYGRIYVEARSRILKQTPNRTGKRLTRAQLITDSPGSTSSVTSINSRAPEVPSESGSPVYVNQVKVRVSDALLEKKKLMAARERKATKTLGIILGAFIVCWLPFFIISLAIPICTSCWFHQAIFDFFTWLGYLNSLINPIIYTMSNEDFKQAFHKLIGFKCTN

| SMILES | IC50 |
| --- | --- |
| Cc1nc(-c2ccc3[nH]cc(C4=CCNCC4)c3c2)cs1 [Example 20, 4-[3-(1,2,5,6-Tetrahydropyrid-4-yl)indol-5-yl]-2-methylthiazole] | ≥ 1 µM |
| Cc1csc(Cc2ccc3[nH]cc(C4=CCNCC4)c3c2)n1 [Example 26, 2-[3-(1,2,5,6-Tetrahydropyrid-4-yl)indol-5-ylmethyl]-4-methylthiazole] | ≥ 1 µM |

same assay, conditions: method of Heuring and Peroutka, J. Neuroscience, 7, 894 (1987); read-out: IC50 (5-HT1D activity)

| SMILES | IC50 |
| --- | --- |
| CN(C)CCc1c[nH]c2ccc(-c3nc(CSc4ccccc4)cs3)cc12 [Example 15B, 2-[3-(N,N-Dimethylaminoethyl)indol-5-yl)-4-(thiophenoxymethyl)thiazole] | ≥ 1 µM |
| CN(C)CCc1c[nH]c2ccc(-c3nccs3)cc12 [Example 7, 2-[3-(N,N-Dimethylaminoethyl)indol-5-yl]thiazole] | ≥ 1 µM |
| CN(C)CCc1c[nH]c2ccc(-c3nc(COc4ccccc4)cs3)cc12 [Example 15A, 2-[3-(N,N-Dimethylaminoethyl)indol-5-yl]-4-(phenoxymethyl)thiazole] | ≥ 1 µM |
| CN1CCC(c2c[nH]c3ccc(-c4nc(CNc5ccccc5)cs4)cc23)CC1 [Example 28, 2-[3-(1-Methylpiperidin-4-yl)indol-5-yl]-4-(phenylaminomethyl)thiazole] | ≥ 1 µM |
| CN(C)CCc1c[nH]c2ccc(-c3nc(CNc4ccccc4)cs3)cc12 [Example 13, 2-[3-(N,N-Dimethylaminoethyl)-indol-5-yl]-4-(phenylaminomethyl)thiazole] | ≥ 1 µM |
